“Also recorded” adds a separate entry of the source. Read-outs that look alike come from different tables or passages of the source.
What was measured:
[1] = test system: VERO-EGFP cells
[2] = test system: SARS-CoV-2 virus; assay type: cell-based
[3] = test system: SARS-CoV-2 virus; experiment: microbe, parasite or virus in culture; assay type: cell-based
[4] = test system: SARS-CoV-2 virus; experiment: microbe, parasite or virus in culture; assay type: cell-based; settings: Severe acute respiratory syndrome coronavirus 2, 72 h; Vero E6-WT cells, three days post-infection; read-out: EC50 for % inhibition of virus-induced CPE
[5] = test system: SARS-CoV-2; experiment: Cell-based antiviral assay (CPE, MTS) in Huh7 cells; settings: Huh7, 0.0062 μM concentration level, 4 days post-infection
[6] = test system: ABCB1; settings: low-nM dual-specificity ABCB1/ABCG2 inhibitor; cited from earlier work
[7] = plate 3, 12 drugs, 250 nM, day 4, MLR model (FIG. 2)
[8] = 250 nM, day 4 (FIG. 3, P3 TOX 250 nM)

In the case of `C[C@H]1CCC/C=C/[C@@H]2C[C@H](O)C[C@H]2[C@H](O)/C=C/C(=O)O1` [BrefA, Brefeldin A], the “toxicity (loss of fluorescence intensity, cell loss)” value ([1]; twelve-drug plate, scanned 4 days later (FIG. 10)) is reported as “cytotoxic and the cause of the observed cell loss”.

For `Cc1c(O)c(=O)ccn1C` [Deferiprone], the “complementing the REC combination or substituting for curcumin” value [2] was “failed to complement the REC combination or substitute for curcumin”.

In the case of `O=c1nc(NO)ccn1[C@@H]1O[C@H](CO)[C@@H](O)[C@H]1O` [EIDD-1931], the “enhancement of / effect on the REC combination” value (from here on “enhancement of / effect”) [2] is reported as “had no effect on the REC combination”, the “substitution for remdesivir in the REC combination” value (from here on “substitution for remdesivir”) ([2]; focus testing (FIGS. 13-18)) is reported as “failed to substitute for remdesivir” and the “substitution for remdesivir” value ([2]; focus testing (FIGS. 13-18), listed as EIDD1931) is reported as “none were able to substitute for remdesivir”. For the same compound, the “individual antiviral efficacy against SARS-CoV2” value (from here on “individual antiviral efficacy”) ([2]; listed as EIDD1) was “does not exert an antiviral effect” and the “individual antiviral efficacy” value ([2]; listed as EIDD1931) was “did not provide evidence for efficacy”.

In the case of `CC(C)C(=O)OC[C@H]1O[C@@H](n2cc/c(=N\O)[nH]c2=O)[C@H](O)[C@@H]1O` [EIDD-2801], the “substitution for remdesivir” value [2] is reported as “failed as a substitute for remdesivir; also recorded: none were able to substitute for remdesivir”.

With `N#C[C@@]1(c2ccc3c(N)ncnn23)O[C@H](CO)[C@@H](O)[C@H]1O` [GS441524] the “individual antiviral efficacy” value [2] was “smaller, yet significant, antiviral effect”, the “substitution for remdesivir” value [2] was “did not replace remdesivir in the REC combination; also recorded: failed to substitute for remdesivir” and the “criticality when optimized for maximal cytopathic effect” value ([2]; system optimization) was “failed to demonstrate criticality”.

In the case of `Cc1sc2c(c1C)C(c1ccc(Cl)cc1)=N[C@@H](CC(=O)OC(C)(C)C)c1nnc(C)n1-2` [JQ-1], the “enhancement of / effect” value [2] is reported as “none of the compounds synergized with the REC combination”.

In the case of `COc1ccc2c3c([nH]c2c1)[C@H](CC(C)C)N1C(=O)[C@H](CCC(=O)OC(C)(C)C)NC(=O)[C@@H]1C3` [Ko143], the “substitution / complementation for elacridar in the REC combination” value (shortened to “substitution / complementation”) ([2]; focus testing, REC combination at 250 nM (FIGS. 11, 12, 17)) is reported as “failed to complement for elacridar” and the “substitution / complementation” value ([2]; focus testing, REC combination at 250 nM (FIGS. 11, 12, 17), listed as K0143) is reported as “cannot substitute for elacridar”.

For `CC(=O)N[C@@H](CS)C(=O)O` [N-acetyl cysteine], the “complementing the REC combination or substituting for curcumin” value [2] was “failed to complement the REC combination, or substitute for curcumin”.

With `CCOC/C=C/c1ccc(-c2nc(-c3ccc(NC(C)C)cc3)c(-c3ccc(NC(C)C)cc3)[nH]2)cc1` [ONT-093] the “substitution / complementation” value [2] was “failed to complement”.

With `CC(C)[C@H](NC(=O)c1ccc2ccccc2n1)C(=O)N[C@@H](CC(=O)O)C(=O)COc1c(F)cccc1F` [Q-VD-Oph] the “enhancement of / effect” value [2] was “none of the compounds synergized with the REC combination”.

In the case of `O=c1c(O)c(-c2ccc(O)c(O)c2)oc2cc(O)cc(O)c12` [Quercetin], the “substitution / complementation” value [2] is reported as “failed to complement for elacridar”.

In the case of `Nc1nc(Nc2ccc3c(c2)CCC(N2CCCC2)CC3)nn1-c1cc2c(nn1)-c1ccccc1CCC2` (centres unmarked) [R428], the “enhancement of / effect” value [2] is reported as “all failed to enhance the REC combination”.

In the case of `CN(C)C(=O)COC(=O)Cc1ccc(OC(=O)c2ccc(NC(=N)N)cc2)cc1` [camostat], the “individual antiviral efficacy” value [2] is reported as “did not provide evidence for efficacy” and the “antiviral response (survival of the cells in response to the SARS-CoV-2 virus)” value [2, 7] is reported as “negatively impacted the survival of the cells”.

In the case of `Cc1cc(C)c(Nc2ccnc(Nc3ccc(C#N)cc3)n2)c(C)c1` [dapivirine], the “enhancement of / effect” value [2] is reported as “all failed to enhance the REC combination”.

For `COc1cc2c(cc1OC)CN(CCc1ccc(NC(=O)c3cccc4c(=O)c5cccc(OC)c5[nH]c34)cc1)CC2` [elacridar], the “antiviral response (survival of the cells in response to the SARS-CoV-2 virus)” value [2, 7] was “antiviral response was demonstrated”, the EC50 ([3]; Severe acute respiratory syndrome coronavirus 2, 72 h, Vero E6-GFP cells, three days post-infection, read-out: EC50 for % inhibition of virus-induced CPE) was 2.16 ± 0.5 µM and the “toxicology (cell viability without virus)” value [1, 8] was “none of the three drugs in the triad of remdesivir, elacridar, and curcumin negatively impacted cell viability”. The EC50 [4] was 1.07 ± 0.5 µM.

For `NC(=O)c1nc(F)c[nH]c1=O` [favipiravir], the “enhancement of / effect” value [2] was “had no effect on the efficacy of the remdesivir, elacridar, and curcumin combination”, the “individual antiviral efficacy” value [2] was “failed to emerge as efficacious” and the “substitution for remdesivir” value [2] was “none were able to substitute for remdesivir”.

In the case of `Cc1nc(-c2ccc(OCC(C)C)c(C#N)c2)sc1C(=O)O` [febuxostat], the “substitution / complementation” value [2] is reported as “cannot substitute for elacridar; also recorded: failed to complement”.

With `CN1CC[C@H](c2c(O)cc(O)c3c(=O)cc(-c4ccccc4Cl)oc23)[C@H](O)C1` [flavopiridol] the “interaction terms / synergism in antiviral response” value [2] was “did not interact significantly with the other three compounds”, the “antiviral response (survival of the cells in response to the SARS-CoV-2 virus)” value [2, 7] was “antiviral response was demonstrated” and the “toxicology (cytotoxicity without virus)” value [1] was “cytotoxic”. The “toxicology (cell viability without virus)” value [1, 8] was “highly toxic to the Vero-EGFP cells” and the “toxicology (cell viability without virus)” value ([1]; 250 nM, day 4 (FIG. 3, P3 TOX 250 nM), listed as Flavopiridol) was “individually caused cell death”.

In the case of `Nc1ncnc2c([C@@H]3N[C@H](CO)[C@@H](O)[C@H]3O)c[nH]c12` [galidesivir], the “contribution factor to the effect of the REC combination” value [2] is reported as 9.6.

For `CCN(CCO)CCCC(C)Nc1ccnc2cc(Cl)ccc12` (centres unmarked) [hydroxychloroquine], the “enhancement of / effect” value [2] was “all failed to enhance the REC combination” and the “individual antiviral efficacy” value [2] was “failed to emerge as efficacious”.

For `CCCCC1=NC2(CCCC2)C(=O)N1Cc1ccc(-c2ccccc2-c2nnn[nH]2)cc1` [irbesartan], the “individual antiviral efficacy” value [2] was “did not provide evidence for efficacy” and the “antiviral response (survival of the cells in response to the SARS-CoV-2 virus)” value [2, 7] was “negatively impacted the survival of the cells”.

With `Cc1cccc(C)c1OCC(=O)N[C@@H](Cc1ccccc1)[C@@H](O)C[C@H](Cc1ccccc1)NC(=O)[C@H](C(C)C)N1CCCNC1=O` [lopinavir] the “individual antiviral efficacy” value [2] was “did not provide evidence for efficacy”.

With `OC(c1cc(C(F)(F)F)nc2c(C(F)(F)F)cccc12)C1CCCCN1` (centres unmarked) [mefloquine] the “enhancement of / effect” value [2] was “all failed to enhance the REC combination” and the “individual antiviral efficacy” value [2] was “did not provide evidence for efficacy”.

In the case of `Cc1c(O)cccc1C(=O)N[C@@H](CSc1ccccc1)[C@H](O)CN1C[C@H]2CCCC[C@H]2C[C@H]1C(=O)NC(C)(C)C` [nelfinavir], the “enhancement of / effect” value [2] is reported as “all failed to enhance the REC combination”.

With `CCC(CC)COC(=O)[C@H](C)N[P@](=O)(OC[C@H]1O[C@@](C#N)(c2ccc3c(N)ncnn23)[C@H](O)[C@@H]1O)Oc1ccccc1` [remdesivir] the “antiviral response (survival of the cells in response to the SARS-CoV-2 virus)” value [2] was “antiviral response was demonstrated”, the “cytopathic effect of the virus at one concentration” value [5] was “minimally protected” and the “inhibition of virus-induced cytopathic effect” value ([3]; Vero E6-GFP, 1.11 μM) was 50-60%. For the same compound, the “toxicology (cell viability without virus)” value [1] was “none of the three drugs in the triad of remdesivir, elacridar, and curcumin negatively impacted cell viability” and the “toxicology (cytotoxicity without virus)” value [1] was “no cytotoxicity”.

In the case of `CC(N)C12CC3CC(CC(C3)C1)C2` (centres unmarked) [rimantadine], the “individual antiviral efficacy” value [2] is reported as “did not provide evidence for efficacy”.

In the case of `CC(C)c1nc(CN(C)C(=O)N[C@H](C(=O)N[C@@H](Cc2ccccc2)C[C@H](O)[C@H](Cc2ccccc2)NC(=O)OCc2cncs2)C(C)C)cs1` [ritonavir], the “individual antiviral efficacy” value [2] is reported as “did not provide evidence for efficacy”.

In the case of `COc1cc2c(cc1OC)CN(CCc1ccc(NC(=O)c3cc(OC)c(OC)cc3NC(=O)c3cnc4ccccc4c3)cc1)CC2` [tariquidar], the “antiviral potency in synergizing with remdesivir (interaction terms)” value [2] is given as “equally potent in synergizing with remdesivir”, the “substitution / complementation” value [2] is given as “can be substituted for elacridar” and the ABCB1 inhibitory potency [6] is given as 5.1 nM.

For `C=C1CC[C@H](O)C/C1=C/C=C1\CCC[C@]2(C)[C@@H]([C@H](C)CCCC(C)C)CC[C@@H]12` [vit-D3], the “enhancement of / effect” value [2] was “failed to enhance the REC combination”.

In the case of `[Zn]` [zinc], the “enhancement of / effect” value [2] is reported as “failed to enhance the REC combination”.

For Z-VAD, the “enhancement of / effect” value [2] was “none of the compounds synergized with the REC combination”.

In the case of ivermectin, the “enhancement of / effect” value [2] is reported as “unable to enhance the REC combination” and the “individual antiviral efficacy” value [2] is reported as “individual, but limited potency”.
